Data: US20030125322A1, “Crystalline form I of 2-methyl-4-(4-methyl-1-piperazinyl) 10H thieno [2,3-b][1,5]benzodiazepine” (SUN PARMACEUTICAL INDUSTRIES LIMITED, priority 2001, published 2003)
Entries after “also recorded” stand apart in the source; their conditions may differ.

What was measured:
[1] = cited from earlier work; for colour stability on standing / storage: prior-art material as reported ('382 process Form I; '541 Form II)
[2] = Storage stability of the crystalline form (colour, infrared spectrum, x-ray diffractogram); assay type: physicochemical; conditions: for change in colour, Infrared spectrum and X-ray diffractogram on storage: accelerated conditions
Source text: The crystalline Form I of 2-methyl-4-(4-methyl-1-piperazinyl)-10H-thieno[2,3-b][1,5]benzodiazepine of the present invention has a typical x-ray powder diffraction pattern as represented by d (interplanar spacing) values 9.9446, 8.5272, 8.1949, 6.8637, 6.3510, 5.4653, 4.8278, 4.7121, 4.5295, 4.2239, 4.0788, 3.8230, 3.7525, 3.6909, 3.4995, 3.3393, 3.1051, 2.9451, 2.8182, 2.7589, 2.5925, 2.3369, 2.0251, 1.9183; infrared absorbance bands at approximately 1456, 1365, 905, 757, 662 & 604 cm^−1 and a stable colour.

## Cc1cc2c(s1)Nc1ccccc1N=C2N1CCN(C)CC1 [Form II, olanzapine, reference compound]
[1]
  colour stability on standing / storage: satisfactory colour stability

## Cc1cc2c(s1)Nc1ccccc1N=C2N1CCN(C)CC1 [Form I, 2-methyl-4-(4-methyl-1-piperazinyl)-10H-thieno[2,3-b][1,5]benzodiazepine]
[1]; Form I obtained by the '382 process, as reported
  stability of crystal form: metastable
[1]
  colour stability on standing / storage: colour changes upon storage and exposure to air; also recorded: change its colour on standing
[2]; 40° C. and 75% relative humidity for one month
  change in colour, Infrared spectrum and X-ray diffractogram on storage: no changes in colour, infra-red spectrum and x-ray diffractogram
[2]; 40° C. and 75% relative humidity for one month, listed as Example 2
  change in colour, Infrared spectrum and X-ray diffractogram on storage: No change in colour, Infrared spectrum (KBr) and X-ray diffractogram
[2]; 75-80° C. for 25 days
  change in colour, Infrared spectrum and X-ray diffractogram on storage: no changes in colour, infra-red spectrum and x-ray diffractogram
[2]; 75-80° C. for 25 days, listed as Example 2
  change in colour, Infrared spectrum and X-ray diffractogram on storage: No change in colour, Infrared spectrum (KBr) and X-ray diffractogram
[2]; ambient conditions of storage, about 15° C. to 35° C. and about 40% to 90% RH
  change in colour, infrared spectrum and x-ray diffractogram on storage: no change in colour, infrared spectrum and x-ray diffractogram
[2]; ambient conditions of storage, room temperature for one month
  change in colour, Infrared spectrum (KBr) and X-ray diffractogram on storage: No change in colour, Infrared spectrum (KBr) and X-ray diffractogram
